{"source": "ChEMBL document CHEMBL4665865", "about": "“New series of isoxazole derivatives targeting EGFR-TK: Synthesis, molecular modeling and antitumor evaluation” (Bioorg Med Chem, 2020)", "key": {"HCT-116 [1]": {"system": "HCT-116", "test": "Induction of apoptosis in human HCT-116 cells assessed as increase in caspase-3 level after 24 hrs by Western blot analysis relative to untreated control", "format": "functional"}, "HCT-116 [2]": {"system": "HCT-116", "test": "Induction of cell cycle arrest in human HCT-116 cells assessed as accumulation of cells at G0/G1 phase at antiproliferative IC50 by PI staining based flow cytometric analysis (reference value: 48.52%)", "format": "functional"}, "HCT-116 [3]": {"system": "HCT-116", "test": "Induction of cell cycle arrest in human HCT-116 cells assessed as cell debris at antiproliferative IC50 by PI staining based flow cytometric analysis (reference value: 1.42%)", "format": "functional", "settings": "time 24 hrs"}, "HepG2": {"system": "HepG2", "test": "Induction of apoptosis in human HepG2 cells assessed as increase in caspase-3 level after 24 hrs by Western blot analysis relative to untreated control", "format": "functional"}, "MCF7 [4]": {"system": "MCF7", "test": "Induction of apoptosis in human MCF7 cells assessed as early apoptotic cells at antiproliferative IC50 incubated for 24 hrs by annexin V FITC and propidium iodide staining based flow cytometry (reference value: 0.39 %)", "format": "functional"}, "HCT-116 [5]": {"system": "HCT-116", "test": "Antitumor activity against human HCT-116 cells assessed as inhibition of cell viability by MTT assay", "format": "functional, cell-based"}, "HCT-116 [6]": {"system": "HCT-116", "test": "Induction of apoptosis in human HCT-116 cells assessed as necrotic cells at antiproliferative IC50 incubated for 24 hrs by annexin V FITC and propidium iodide staining based flow cytometry (reference value: 0.59 %)", "format": "functional"}, "MCF7 [7]": {"system": "MCF7", "test": "Induction of apoptosis in human MCF7 cells assessed as late apoptotic cells at antiproliferative IC50 incubated for 24 hrs by annexin V FITC and propidium iodide staining based flow cytometry (reference value: 0.28 %)", "format": "functional"}, "MCF7 [8]": {"system": "MCF7", "test": "Induction of cell cycle arrest in human MCF7 cells assessed as aggregates at antiproliferative IC50 by PI staining based flow cytometric analysis (reference value: 2.11%)", "format": "functional", "settings": "time 24 hrs"}, "HCT-116 [9]": {"system": "HCT-116", "test": "Induction of cell cycle arrest in human HCT-116 cells assessed as aggregates at antiproliferative IC50 by PI staining based flow cytometric analysis (reference value: 1.61%)", "format": "functional", "settings": "time 24 hrs"}}}
{"smiles": "Cc1cc(NC2=NC(=O)/C(=C\\c3c4ccccc4cc4ccccc34)S2)no1", "values": [{"measurement": "fold change (FC)", "setting": "HCT-116 [1]", "result": 14.2}, {"measurement": "Activity", "setting": "HCT-116 [2]", "result": 29.67, "unit": "%"}, {"measurement": "Activity", "setting": "HCT-116 [3]", "result": 1.92, "unit": "%"}, {"measurement": "fold change (FC)", "setting": "HepG2", "result": 5.4}, {"measurement": "Activity", "setting": "MCF7 [4]", "result": 6.28, "unit": "%"}, {"measurement": "IC50", "setting": "HCT-116 [5]", "result": 7.72, "unit": "µM"}, {"measurement": "Activity", "setting": "HCT-116 [6]", "result": 2.27, "unit": "%"}, {"measurement": "Activity", "setting": "MCF7 [7]", "result": 7.82, "unit": "%"}, {"measurement": "Activity", "setting": "MCF7 [8]", "result": 2.11, "unit": "%"}, {"measurement": "Activity", "setting": "HCT-116 [9]", "result": 1.74, "unit": "%"}]}
